Melting point data for 108 molecules are collected here from a melting point compilation (Tetko et al.).

Each structure is given as a SMILES string.

`NC(=O)c1cc(C(=O)CN(Cc2ccccc2)Cc2ccccc2)ccc1O`: the melting point (in general, the temperature, or range, at which the solid turns liquid) was found to be 168 °C. Consider `Cn1nc(CCl)cc1-c1ccccc1`, for which the melting point was in the range of 59 to 61 °C. The molecule `COc1cc(C(C)=O)ccc1F` registered a melting point of 52 to 54 °C. `Cc1cc2c(o1)-c1c(oc3ccc(Cl)cc13)CCC2C` (stereo not drawn) showed a melting point of 93 °C. `Brc1cccc(N2CCOCC2)n1`: the melting point was 50 to 51 °C. The value for `Cc1cnc(Br)c(N)c1` was 105 °C.

`CCOC(=O)C(F)(F)C(F)(F)F` gave a melting point of 75.5 °C. Molecule `COc1ccc(NN=C2C(=O)NC(=O)NC2=O)cc1` yielded a melting point of 264 °C.

Molecule `CC1C(=CC(=O)OCCN(C)C)CCC2C1C(=O)CC1C(C)(C)C(O)CCC21C` (stereo not drawn) returned a melting point of 142 °C.

`Cc1onc(-c2ccc(F)cc2)c1C(=O)Cl`: the melting point lay within 51 to 55 °C. As to `Nc1ccc(C(c2ccccc2)(c2ccccc2)c2ccccc2)cc1`, the melting point was determined as 258 °C. The value for `COC(=O)c1c(P(c2ccccc2)c2ccccc2)ccc2ccccc12` was 108 °C; that for `CC(=O)Nc1ccc(C(C)=O)c(C)c1` was 139 °C. Consider `O=C(c1ccc2ccccc2c1)c1noc(-c2ccc([N+](=O)[O-])cc2)c1S(=O)(=O)c1ccccc1`, for which the melting point came out at 131 °C. On to `CC1=CC2OC1C(Cl)(Cl)C(=O)C2(Cl)Cl` (stereo not drawn), for which the melting point lay in the range of 90 to 90.5 °C. In turn, `O=C(F)c1ccccc1` showed a melting point of -28 °C. The value for `Cc1c(C(=O)Cl)cnn1-c1ccc(Cl)cc1` was 115 °C; that for `O=C(C=Cc1ccco1)C=Cc1ccco1` was 60.5 °C. In turn, `Cc1nc(CO)cs1` returned a melting point of 50 °C. The value for `CCc1ccccc1[N+](=O)[O-]` was -12.3 °C. `Clc1nc[nH]c1Cl`: the melting point lay in the range of 185 to 186 °C. In turn, `O=C(O)c1ccc(CBr)c([N+](=O)[O-])c1` gave a melting point of 131 °C. `CC(CCC(=O)O)C1CCC2C3C(=O)CC4CC(=O)CCC4(C)C3CC(=O)C12C` (stereo not drawn): the melting point is 237 °C. The value for `Cc1ccc2c(c1)OC(C)(c1ccc(C)cc1OC(=O)[C@]13CC[C@](C)(C(=O)O1)C3(C)C)CC2(C)C` (stereo partly drawn) was 136 °C; that for `Clc1ccc2c(c1)C(c1ccccc1)=NCc1nncn1-2` was 228 °C; that for `O=C1c2ccccc2C(=O)C1(Cl)c1ccccc1` was 115 to 116 °C.

Take `CC(C)(C)NCC(O)c1cc(O)cc(O)c1` (stereo not drawn): the melting point amounted to 119 °C. Regarding `CC1=CC(=O)CC(C)(C)C1=O`, the melting point lay in the range of 26 to 28 °C. The value for `CCc1c(C)[nH]c2ccc(N(C)C)cc12` was 100 °C. As to `CCC(CC)Nc1c([N+](=O)[O-])cc(C)c(C)c1[N+](=O)[O-]`, the melting point came out at 58 °C. For `O=C(CBr)c1ccc(F)cc1`, the melting point was determined as 47 °C.

`CCCCCCCCCCCCc1ccc(N)cc1` gave a melting point of 40.5 °C. In turn, `CCCCC1CCCC1` gave a melting point of -108 °C.

`CC1=C(C(=O)O)N2C(=O)C(NC(=O)C(N)c3ccccc3)C2SC1` (stereo not drawn) returned a melting point of 327 °C. In the case of `CC(=O)Nc1cc(NC(C)=O)c(C=Cc2ccccc2)c([N+](=O)[O-])c1C=Cc1ccccc1`, the melting point is 276 °C. In turn, `CNC(C)C1C(O)CC2(C)C3CCC4C(C)(C)C(NC)CCC45CC35CCC12C` (stereo not drawn) gave a melting point of 207 °C. `O=C(Nc1ccc([N+](=O)[O-])cc1Cl)C1(F)C(F)(F)C(F)(F)C(F)(F)C(F)(F)C1(F)F`: the melting point turned out to be 93 °C.

Molecule `N#C/C(=N\Nc1cc(Cl)c(Cl)cc1Cl)c1nc2ccccc2s1` returned a melting point of 214 °C. With `NC(=NO)c1ccc2ccccc2c1`, the melting point lay in the range of 150 to 151 °C. For the molecule `N#Cc1cnccc1/C=C/c1ccccc1`, the melting point was in the range of 128 to 130 °C. The molecule `CN1CCCC1c1cccnc1` (stereo not drawn) returned a melting point of -79 °C.

`CC(=O)c1ccc(-c2c(Cl)cc(Cl)cc2Cl)o1` returned a melting point of 108 °C. In the case of `CC(=O)C1(O)CCC2C3CC(C)C4=CC(=O)C=CC4(C)C3(F)C(O)CC21C` (stereo not drawn), the melting point was 297 °C. The value for `CCC1(CC)C(=O)NCC(C)C1=O` (stereo not drawn) was 76 °C; that for `CCOC(=O)C(CCC(=O)O)(CCC(=O)O)C(C)=O` was 105 to 108 °C; that for `CSc1nc2cc(N=Cc3ccc([N+](=O)[O-])cc3)ccc2[nH]1` was 259 to 260 °C. `CC(=O)OC1CC2C(C)C(=O)C3(C(O)CC4C5(C)CCCC4(C(O)OC5)C13)C2O` (stereo not drawn) showed a melting point of 220 °C. Molecule `NC(=O)/C(=N\Nc1c(Cl)cccc1Cl)c1nc2ccccc2s1` registered a melting point of 175 °C. The value for `CCOC(=O)c1c(C)[nH]c2cc3[nH]c(C)c(C(=O)OCC)c3cc12` was 342 °C.

`O=C(O)c1ncccc1O` displayed a melting point of 208 to 212 °C. The molecule `C=CC(=O)OCCCCCCCC(C)C` displayed a melting point of -100 °C. With `CCC12CCCN(CCc3c([nH]c4ccccc34)CC1)C2` (stereo not drawn), the melting point turned out to be 146 °C. With `O=C(c1ccccc1)c1nn2c(C(F)(F)F)nnc2s1`, the melting point turned out to be 157 °C. `O=C(O)c1cccc(S(=O)(=O)Oc2ccc3ccccc3c2)c1` showed a melting point of 155 °C. On to `O=C=Nc1ccc(-n2cccc2)cc1`, for which the melting point lay within 65 to 66 °C. In turn, `CCCc1c(C(=O)O)cnn1-c1ccc(Cl)cc1` registered a melting point of 116 to 119 °C. Take `CN(C)c1ccc(F)cc1`: the melting point was found to be 36 °C. As to `c1ccc2cc3c(cc2c1)CC1OC1C3` (stereo not drawn), the melting point is 159 to 160 °C. Regarding `FC(F)(F)c1ccc(Br)cn1`, the melting point amounted to 40 °C. The value for `O=C(O)C1CCCNC1` (stereo not drawn) was 246 to 253 °C; that for `COc1c(C)c(C)c(OC)c(C=O)c1C` was 86 °C; that for `O=S(=O)(Cl)c1ccccc1I` was 51 to 52 °C.

Regarding `O=C(c1ccc([N+](=O)[O-])cc1)c1noc(-c2ccc([N+](=O)[O-])cc2)c1S(=O)(=O)c1ccccc1`, the melting point amounted to 133 °C. Consider `O=S(=O)(O)CC(O)CNC(CO)(CO)CO` (stereo not drawn), for which the melting point lay in the range of 220 to 221 °C. As for `Cc1c([N+](=O)[O-])cc(C(C)C)c(O)c1[N+](=O)[O-]`, the melting point was 55.5 °C. The value for `CCNc1nsc2ccccc12` was 78 °C; that for `N#Cc1c(F)c(F)c(C#N)c(F)c1F` was 198 °C; that for `CCC1CC(O)CC(C)(C)N1O` (stereo not drawn) was 69 to 73 °C. The molecule `NC(C(=O)O)(c1ccccc1)c1ccccc1` had a melting point of 244 to 247 °C.

In turn, `CCC1CCC(=O)O1` (stereo not drawn) showed a melting point of -18 °C. The value for `O=Cc1cccc2c1OCC2` was 54 to 55 °C; that for `Cc1noc(-c2ccc(C=O)cc2)n1` was 133 to 135 °C; that for `Cc1ccc(CCl)cc1[N+](=O)[O-]` was 46 to 50 °C. Consider `NCc1cccc2c(Br)cccc12`, for which the melting point was in the range of 138 to 139 °C.

Regarding `CC(C)CCC[C@@H](C)[C@H]1CC[C@H]2[C@@H]3CC[C@H]4CC(=O)CC[C@]4(C)[C@H]3CC[C@]12C`, the melting point lay in the range of 128 to 133 °C. `Cc1ccc(S(=O)(=O)OC2CCC3(C)C(CCC4C5CCCC5(C)CCC43)C2)cc1` (stereo not drawn) yielded a melting point of 129 to 131 °C. `O=C(O)c1ccc(F)cc1Cl`: the melting point turned out to be 185 °C. In the case of `CC(=O)c1cccc(Cl)c1O`, the melting point was in the range of 80 to 83 °C. In turn, `O=[N+]([O-])c1ccc2ccc3cccc4ccc1c2c34` displayed a melting point of 155 °C. `Nc1cc(Cl)ccc1[N+](=O)[O-]` gave a melting point of 128 °C. As to `O=C1c2ccccc2C(=O)N1c1ccc(Cl)cc1`, the melting point turned out to be 197 °C. For the molecule `CC(=O)c1ccc(Cl)s1`, the melting point worked out at 49 °C. Take `Cc1ccc(C2C(C#N)=C(N)Oc3[nH]nc(C(F)(F)F)c32)cc1` (stereo not drawn): the melting point was found to be 185 °C. Consider `Cc1cc(NS(=O)(=O)c2ccc(N)cc2)n(-c2ccccc2)n1`, for which the melting point amounted to 195 °C. The value for `Nc1ccc(Cl)nc1` was 83 °C; that for `O=[N+]([O-])c1cnc(Cl)c([N+](=O)[O-])c1` was 63 to 66 °C; that for `Cn1nc(C(F)(F)F)c(-c2ccccc2)c1N` was 85 to 89 °C. `N#Cc1cccnc1Cl` gave a melting point of 107 to 109 °C. The molecule `O=C1Nc2ccccc2CCc2ccccc21` yielded a melting point of 246 to 248 °C. For the molecule `CC(C)(C)c1cc(C(=Nc2ccccc2)Nc2ccccc2)cc(C(C)(C)C)c1O`, the melting point fell in the range of 130 to 131 °C. The molecule `O=C(O)CCC(=O)c1ccc2c(c1)OCCCO2` gave a melting point of 149 to 151 °C. The value for `Oc1cccnc1O` was 245 °C; that for `Cc1ccccc1N1C(=O)C2ON=C(C(=O)c3ccco3)C2C1=O` (stereo not drawn) was 203 to 204 °C. In turn, `O=C(O)c1ccc(-c2cccs2)cc1` showed a melting point of 240 to 244 °C. `Cc1cc(C(=O)O)ccc1O` came in with a melting point of 174 to 175 °C. As to `O=C(CC(NC(=O)OCC1c2ccccc2-c2ccccc21)C(=O)O)NC(c1ccccc1)(c1ccccc1)c1ccccc1` (stereo not drawn), the melting point worked out at 205 °C.

Molecule `O=c1[nH]ccc(=S)[nH]1` showed a melting point of 295 °C. The value for `Cc1ccc(C)c(C(O)C(=O)O)c1` (stereo not drawn) was 115 to 118 °C; that for `Cc1ccccc1-n1ncc(C=O)c1C` was 99 to 100 °C. Regarding `O=[N+]([O-])c1cccnc1Oc1ccccc1F`, the melting point is 90 to 92 °C. `Cn1nc(-c2cccs2)cc1C=O` displayed a melting point of 76 to 77 °C. On to `CC(=O)c1cccc(O)c1`, for which the melting point amounted to 96 °C. Consider `CC12CCC(C(O)=CC1=O)C2(C)C` (stereo not drawn), for which the melting point is 221 °C. Turning to `Nc1ccc2c3c(cccc13)-c1ccccc1-2`, the melting point stood at 116 °C.

Molecule `Cc1ccccc1C1Cc2ccccc2C(O)O1` (stereo not drawn) had a melting point of 100 to 109 °C. With `Cc1ccc(C#N)c(=O)[nH]1`, the melting point was in the range of 293 to 295 °C.

Consider `C[C@@](O)(CC(=O)O)C(=O)O`, for which the melting point lay in the range of 107 to 111 °C.

Regarding `O=c1[nH]c2ccccc2[nH]c1=O`, the melting point was found to be 300 °C.
